What was measured:
Assay type in all cases: biochemical, E. coli K12
[1] = biological target: T1, L-aspartate-α-decarboxylase (Escherichia coli, UniProt P0A790); assay: Bioconversion of 0.5M D/L-aspartate with NS3291 cells (Example 3)
T1 construct: expressed in transfected cells; host or cells: E. coli W3110 transformed with pIF309 = strain NS3291 (ATCC 98675), whole cells
Experimental: 66.5 g (0.5M) D/L-aspartate (Sigma, A-9006) was weighed into a 2 L beaker and the pH adjusted to 7.0 with 10N NaOH. The volume was brought to 963 ml with deionized H2 O. 137 ml of cells (NS 3291, described above) were added at a packed cell volume ("PCV") of 7.31 g/10 ml cells resulting in a final volume of 1.1 L. Samples (approximately 1 ml each) were removed over time, centrifuged and the supernatant fluid was analyzed by HPLC for D- and L-aspartic acid content.
(§1) In all of the Examples herein, D- and L-aspartic acid isomers were quantified by HPLC using the following precolumn derivatization method. Aspartic acid was converted into diastereomers using ortho-phthalaldehyde and N-acetyl-L-cysteine. Separation of the diastereomers was achieved on a Supelcosil™ LC-18DB, 3μ, 150×4.6 mm column using a mobile phase of A: 20% methanol/80% triethylamine phosphate and B: methanol, and a step gradient as follows: […]
Retention times were 4.19 minutes and 4.54 minutes for D-aspartic acid and L-aspartic acid, respectively.
Samples from bioconversions were centrifuged to remove cells in a microcentrifuge and the supernatant fluid diluted appropriately such that the value determined from the HPLC fell within the linear region of the standard curve. These dilutions were usually between 1:100 and 1:200, made with deionized water.

[2] = biological target: T1, L-aspartate-α-decarboxylase; assay: Re-treatment of Example 3 supernatant fluid with fresh cells (Example 4); conditions: 37° C.
From the text: as §1
In this Example the supernatant fluid from Example 3 was re-treated with fresh cells. The reaction from Example 3, stopped at 68 hours, was centrifuged for 45 minutes in a GS-3 rotor at 7000 rpm. The supernatant fluid, 990 ml, was separated from the cells. 963 ml of this supernatant fluid was mixed with 137 ml fresh cells and placed in a 2 L fermentor. Bioconversion took place with mixing at 300 rpm, without automatic pH control and at a temperature of 37° C. Samples, approximately 1 ml, were removed over time and analyzed as in Example 3.

[3] = biological target: T1, L-aspartate-α-decarboxylase; assay: NH4OH neutralized 1.0M D/L-aspartate substrate (Example 7); conditions: for concentration in supernatant fluid / percent remaining: 1.0M, NH4OH neutralized, 37° C.
Experimental: Cells were stored frozen at -80° C. 133.1 g (1 mol) D/L-aspartic acid was dissolved in approximately 600 ml deionized H2 O and adjusted to a pH of about 7 with concentrated NH4 OH. The final volume of substrate was brought to 963 ml to which was added 137 ml cells, freshly thawed. The mixture was placed in the 2 L fermentor and the temperature adjusted to 37° C. No automatic pH control was used, however, the pH was monitored as samples were removed and the pH adjusted with 50% NH4 OH. Samples, approximately 1 ml, were removed periodically, centrifuged, and the supernatant fluid was stored frozen prior to diluting and HPLC analysis.

[4] = biological target: T1, L-aspartate-α-decarboxylase; assay: Temperature study, 50° C. (Example 9); conditions: 1.0M, 100 g/l cells
Experimental: 133.1 g (1 mol) of D/L-aspartic acid was dissolved in deionized H2 O and the pH was adjusted to 7.0 with 10N NaOH, approximately 100 ml. Cells, freshly thawed from -80° C., were added to achieve a final concentration of 100 g/l. Three 2 L fermentors were each charged with 963 ml of substrate solution and 137 ml of cells and then heated to 37° C. and 45° C. while mixing at 300 rpm or heated to 50° C. while mixing at 450 rpm. Samples, approximately 1 ml, were removed over time and pH adjusted to 7.0 with either NaOH or HCl. After centrifugation to remove cells, the supernatant fluid was analyzed for both D- and L-aspartic acid.

T1 sequence (P0A790 25-126): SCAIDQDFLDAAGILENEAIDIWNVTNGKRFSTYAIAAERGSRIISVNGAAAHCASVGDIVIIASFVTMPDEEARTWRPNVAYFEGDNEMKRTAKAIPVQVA
T1 sequence (P0A790 1-24): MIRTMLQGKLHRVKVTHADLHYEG

N[C@@H](CC(=O)O)C(=O)O [L-Asp, L-aspartic acid]
percent remaining ([1]; 5.5000 hr): 41.739%
percent remaining ([1]; 24.500 hr): 0.5888%
percent remaining ([1]; 26.500 hr): 0.4157%
percent remaining ([1]; 32.500 hr): 0.2078%
percent remaining ([1]; 47.500 hr): 0.1039%
percent remaining ([1]; 52.000 hr): 0.06928%
percent remaining ([1]; 68.000 hr): 1.4894%
concentration in supernatant fluid ([2]; 0.0000 hr): 0.43 mg/mL
concentration in supernatant fluid ([2]; 0.0000 hr, listed as L-aspartic acid): 0.43 mg/mL
concentration in supernatant fluid ([2]; 2.7500 hr): 0.11 mg/mL
percent remaining ([2]; 2.7500 hr): 25.581%
concentration in supernatant fluid ([2]; 13.500 hr): 0.09 mg/mL
percent remaining ([2]; 13.500 hr): 20.930%
concentration in supernatant fluid ([2]; 15.000 hr): 0.08 mg/mL
percent remaining ([2]; 15.000 hr): 18.605%
concentration in supernatant fluid ([2]; 19.500 hr): 0.09 mg/mL
percent remaining ([2]; 19.500 hr): 20.930%
concentration in supernatant fluid ([2]; 23.500 hr): 0.07 mg/mL
percent remaining ([2]; 23.500 hr): 16.279%
concentration in supernatant fluid ([2]; 23.500 hr, listed as L-aspartic acid): 0.07 mg/mL
concentration in supernatant fluid ([2]; 39.000 hr): 0.1 mg/mL
percent remaining ([2]; 39.000 hr): 23.256%
concentration in supernatant fluid ([2]; 47.000 hr): 0.16 mg/mL
percent remaining ([2]; 47.000 hr): 37.209%
concentration in supernatant fluid ([2]; 51.750 hr): 0.23 mg/mL
percent remaining ([2]; 51.750 hr): 53.488%
concentration in supernatant fluid ([2]; 68.500 hr): 0.55 mg/mL
percent remaining ([2]; 68.500 hr): 127.91%
concentration in supernatant fluid ([2]; 68.500 hr, listed as L-aspartic acid): 0.55 mg/mL
concentration in supernatant fluid ([3]; 0.0000 hr): 55.740 mg/mL
concentration in supernatant fluid ([3]; 3.0000 hr): 53.380 mg/mL
percent remaining ([3]; 3.0000 hr): 95.766%
concentration in supernatant fluid ([3]; 6.0000 hr): 56.370 mg/mL
percent remaining ([3]; 6.0000 hr): 101.13%
concentration in supernatant fluid ([3]; 9.0000 hr): 56.680 mg/mL
percent remaining ([3]; 9.0000 hr): 101.69%
concentration in supernatant fluid ([3]; 19.000 hr): 59.270 mg/mL
percent remaining ([3]; 19.000 hr): 106.33%
concentration in supernatant fluid ([3]; 23.500 hr): 54.930 mg/mL
percent remaining ([3]; 23.500 hr): 98.547%
concentration in supernatant fluid ([3]; 28.000 hr): 52.620 mg/mL
percent remaining ([3]; 28.000 hr): 94.403%
concentration in supernatant fluid ([3]; 32.500 hr): 50.900 mg/mL
percent remaining ([3]; 32.500 hr): 91.317%
concentration in supernatant fluid ([3]; 43.000 hr): 53.520 mg/mL
percent remaining ([3]; 43.000 hr): 96.017%
percent remaining ([3]; 49.000 hr): 91.676%
rate of L-Asp utilization ([3]; NH4+ salt as compared to the Na+ salt): slower
concentration in supernatant fluid ([4]; 0.000 hr): 100.0 mg/mL
concentration in supernatant fluid ([4]; 1.000 hr): 98.93 mg/mL
percent remaining ([4]; 1.000 hr): 108.9%
concentration in supernatant fluid ([4]; 3.000 hr): 105.7 mg/mL
percent remaining ([4]; 3.000 hr): 83.78%
concentration in supernatant fluid ([4]; 5.0000 hr): 106.0 mg/mL
percent remaining ([4]; 5.0000 hr): 73.63%
concentration in supernatant fluid ([4]; 7.000 hr): 106.6 mg/mL
percent remaining ([4]; 7.000 hr): 73.63%
concentration in supernatant fluid ([4]; 9.000 hr): 107.3 mg/mL
percent remaining ([4]; 9.000 hr): 70.13%
concentration in supernatant fluid ([4]; 13.50 hr): 108.4 mg/mL
percent remaining ([4]; 13.50 hr): 70.54%
concentration in supernatant fluid ([4]; 23.00 hr): 103.3 mg/mL
percent remaining ([4]; 23.00 hr): 65.98%
concentration in supernatant fluid ([4]; 25.00 hr): 109.0 mg/mL
percent remaining ([4]; 25.00 hr): 65.73%
concentration in supernatant fluid ([4]; 27.00 hr): 103.6 mg/mL
percent remaining ([4]; 27.00 hr): 55.48%
concentration in supernatant fluid ([4]; 32.00 hr): 104.4 mg/mL
percent remaining ([4]; 32.00 hr): 53.33%
concentration in supernatant fluid ([4]; 37.50 hr): 106.5 mg/mL
percent remaining ([4]; 37.50 hr): 58.82%
percent remaining ([4]; 47.00 hr): 52.77%
concentration in supernatant fluid ([4]; 52.00 hr): 107.0 mg/mL
percent remaining ([4]; 52.00 hr): 56.28%
concentration in supernatant fluid ([4]; 57.00 hr): 119.4 mg/mL
percent remaining ([4]; 57.00 hr): 66.89%
concentration in supernatant fluid ([4]; 71.00 hr): 104.2 mg/mL
percent remaining ([4]; 71.00 hr): 52.65%
concentration in supernatant fluid ([4]; 77.00 hr): 105.4 mg/mL
percent remaining ([4]; 77.00 hr): 53.35%
concentration in supernatant fluid ([4]; 81.00 hr): 104.6 mg/mL
percent remaining ([4]; 81.00 hr): 52.69%
concentration in supernatant fluid ([4]; 99.75 hr): 108.1 mg/mL
percent remaining ([4]; 99.75 hr): 53.93%
